This note sets out measurements from patent publication EP0422618A1, “Polysaccharides with antiphlogistic activity, method for obtaining them and pharmaceutical compositions containing the same” (LOMAPHARM Rudolf Lohmann GmbH KG Pharmazeutische Fabrik, priority 1989, dated 1991).

The structures appear in SMILES notation.

This assay deals with Carrageenan induzierten Rattenpfotenödem. Nature of the assay: Carrageenan-induced rat paw oedema test. The assay is classed as in vivo, Ratte. Conditions: 10 mg/kg i.v. An excerpt: Die antiphlogistische Wirkung der erfindungsgemäßen Polysaccharide wurde im Carrageenan induzierten Rattenpfotenödemtest untersucht (Winter, C.A. et al., Proc. Soc. Exp. Biol. Med. 111, 544 (1962)).

With `COc1ccc2c(c1)c(CC(=O)O)c(C)n2C(=O)c1ccc(Cl)cc1` [Indometacin], the “Hemmung des Rattenpfotenödems nach 8 Stunden” value is “Indometacin 10 mg/kg i.v. 22,9%”.
